The values that follow come from patent publication US20190166835A1, “Fungal Trisaccharide Ester Compounds and Use Thereof in Preparing Agents for Preventing and Controlling Plant Fungal Diseases” (SOUTH CHINA BOTANICAL GARDEN, CHINESE ACADEMY OF SCIENCES, priority 2017, published 2019).

One assay has as its system Peronophythora litchii. Briefly: agar diffusion test, in vitro inhibitory activity. The assay is classed as cell-based. As to conditions: 500 μg per 6 mm filter paper, PDA, 28° C., 72 or 96 hours. The text has this:
(§1) Experiment of in vitro inhibitory activities of the trisaccharide ester compounds 1 to 5 obtained in embodiment 2 against common plant pathogenic fungi of twelve genus.
(§2) The fungi used in the experiments include: 1) Alternaria solani (causing early blight of tomatoes), 2) Botryospuaeria berengeriana (causing ring rot of apples), 3) Botrytis cinerea (causing grey mould of tomatoes), 4) Colletotrichum gloeosporioides (causing anthracnose of mangos), 5) Curvularia lunata (which will infect bananas), 6) Fusarium oxysporium (causing fusarium wilt of bananas and watermelons), 7) Geotrichum citri-aurantii (causing sour rot of citrus), 8) Helminthosporium maydis (causing southern corn leaf blight), 9) Penicillium italicum (causing blue mould of citrus), 10) Peronophythora litchii (which will infect litchi), 11) Rhizoctonia solani (causing sheath blight of rice), and 12) Ustilaginoidea virens (causing false smut of rice).
(§3) The antifungal activities of the compounds 1 to 5 were determined by the agar diffusion test. The fungi were activated and respectively seeded onto petri dishes containing PDA solid culture medium, and spread uniformly with T-shaped spreaders. Each compound was dissolved in methanol to give a 50 mg/mL solution. 10 μL of the solution was then added dropwise onto a filter paper (with a diameter of 6 mm) and let dry in the clean bench such that each filter paper contained 500 μg of the compound eventually. The filter papers were then pressed to the pertri dishes mentioned above and left to incubate in dark at 28° C. for 72 or 96 hours, and then the inhibition widths were measured (a inhibition width refers to an average diameter of the zones of inhibition), wherein filter papers containing a same volume of methanol were used as negative controls.
On the technique in general: Agar diffusion results depend on both activity and mobility in agar.

The test system of the next assay is Curvularia lunata. Briefly: agar diffusion test, in vitro inhibitory activity. The assay is classed as cell-based. As to conditions: 500 μg per 6 mm filter paper, PDA, 28° C., 72 or 96 hours.
Source text: as §1, §2, §3

The test system of the next assay is Helminthosporium maydis. In words: agar diffusion test, in vitro inhibitory activity. The assay is classed as cell-based. As to conditions: 500 μg per 6 mm filter paper, PDA, 28° C., 72 or 96 hours.
Source text: as §1, §2, §3

The subject of assay [1] is Colletotrichum gloeosporioides. Briefly: agar diffusion test, in vitro inhibitory activity. Format: cell-based. To be noted: 500 μg per 6 mm filter paper, PDA, 28° C., 72 or 96 hours.
Source text: as §1, §2, §3

The next assay deals with Penicillium italicum. In words: agar diffusion test, in vitro inhibitory activity. Format: cell-based. To be noted: 500 μg per 6 mm filter paper, PDA, 28° C., 72 or 96 hours.
Source text: as §1, §2, §3

Another assay deals with Ustilaginoidea virens. Briefly: agar diffusion test, in vitro inhibitory activity. The assay is classed as cell-based. As to conditions: 500 μg per 6 mm filter paper, PDA, 28° C., 72 or 96 hours.
Source text: as §1, §2, §3

In assay [2] the test system is Botryospuaeria berengeriana. In words: agar diffusion test, in vitro inhibitory activity. Format: cell-based. To be noted: 500 μg per 6 mm filter paper, PDA, 28° C., 72 or 96 hours.
Source text: as §1, §2, §3

For assay [3], the system named is Geotrichum citri-aurantii. Briefly: agar diffusion test, in vitro inhibitory activity. Format: cell-based. To be noted: 500 μg per 6 mm filter paper, PDA, 28° C., 72 or 96 hours.
Source text: as §1, §2, §3

The subject of the next assay is Botrytis cinerea. In words: agar diffusion test, in vitro inhibitory activity. Format: cell-based. To be noted: 500 μg per 6 mm filter paper, PDA, 28° C., 72 or 96 hours.
Source text: as §1, §2, §3

Another assay deals with Rhizoctonia solani. Briefly: agar diffusion test, in vitro inhibitory activity. Format: cell-based. To be noted: 500 μg per 6 mm filter paper, PDA, 28° C., 72 or 96 hours.
Source text: as §1, §2, §3

Another assay has as its system Fusarium oxysporium. Briefly: agar diffusion test, in vitro inhibitory activity. Format: cell-based. As to conditions: 500 μg per 6 mm filter paper, PDA, 28° C., 72 or 96 hours.
Source text: as §1, §2, §3

In another assay the test system is Alternaria solani. In words: agar diffusion test, in vitro inhibitory activity. The assay is classed as cell-based. As to conditions: 500 μg per 6 mm filter paper, PDA, 28° C., 72 or 96 hours.
Source text: as §1, §2, §3

In assay [4] the test system is pathogenic fungi in the postharvest storage of citrus fruits. In words: preservation of citrus in postharvest storage (infection index). As to conditions: soaked 5 minutes, stored at 25° C. for 15 days. Format: in vivo, citrus reticulata blanco cv.shiyueju. As to the method: Experiment of the trisaccharide ester extract obtained in embodiment 2 in the preservation of citrus in postharvest storage Samples for the experiment: the trisaccharide ester extract (containing the compounds 1 to 4, with a mass ratio of about 60:35:4:1) obtained in embodiment 2 was dissolved in a small volume of ethanol and diluted with water to give treating solutions (200, 400 and 600 mg/L). The citrus fruits were soaked in the treating solutions for 5 minutes and left to dry. The fruits were then put in plastic baskets (the plastic baskets were surface-sterilized with 75% ethanol and left to dry in advance), sealed in polyethylene bags with a thickness of 0.02 mm, and stored at 25° C. for 15 days. The fruits were observed and their infection indexes were recorded. Calculation of the infection index: infection index=Σ(infection level×amount of fruits of the level)/([…]×total amount of fruits)×100%; infection level: 0 refers to “no obvious infection”, 1 refers to “slight infection”, 2 refers to “infection area smaller than or equal to ¼ of fruit surface”; 3 refers to “infection area larger than ¼ and smaller than ½ of fruit surface”, and 4 refers to “infection area larger than or equal to ½ of fruit surface”. Three replicates were set for each treating solution, and 60 fruits for each replicate. Fruits for the experiments: citrus reticulata blanco cv.shiyueju, harvested from Conghua Orchard.

On to `CCCCCCCC(=O)O[C@@H]1C(CO[C@H]2OC(CO)[C@H](O)[C@H](O)C2O)O[C@H](O[C@H]2OC(CO)[C@@H](O)[C@H](O)C2O)C(OC(=O)CCC(C)CC)[C@H]1OC(=O)C(C)CC` (stereo partly drawn) [Compound 4], for which the Zone of inhibition in the assay on Peronophythora litchii turned out to be 12 mm; in the assay with Curvularia lunata, 15 mm; with Helminthosporium maydis it was 18 mm; in assay [1], 14 mm; in the assay with Penicillium italicum it was 18 mm; with Ustilaginoidea virens it was 20 mm. Further, the Zone of inhibition is reported as 10 mm in [2]; 12 mm in assay [3]; 10 mm in the assay on Botrytis cinerea; 18 mm with Rhizoctonia solani; 10 mm in the assay with Fusarium oxysporium; 12 mm in the assay on Alternaria solani.

Consider `CCCCCCCCCC(=O)O[C@@H]1C(CO[C@H]2OC(CO)[C@H](O)[C@H](O)C2O)O[C@H](O[C@H]2OC(CO)[C@@H](O)[C@H](O)C2O)C(OC(=O)CCC(C)CC)[C@H]1OC(=O)C(C)CC` (stereo partly drawn) [Compound 2, 4-O-decanoyl-6-O-β-L-mannosyl-3-O-(2-methylbutyryl)-2-O-(4-methylhexanoyl)trehalose], for which the Zone of inhibition amounted to 12 mm in the assay with Peronophythora litchii; 15 mm in the assay on Curvularia lunata; 18 mm with Helminthosporium maydis; 10 mm in [1]; 22 mm in the assay on Penicillium italicum; 20 mm in the assay on Ustilaginoidea virens. For the same compound, the Zone of inhibition in [2] is given as 14 mm; in [3], 15 mm; in the assay on Botrytis cinerea, 14 mm; in the assay with Rhizoctonia solani, 16 mm; in the assay with Fusarium oxysporium, 12 mm; in the assay on Alternaria solani, 14 mm.

As to `CCC(C)CCCCCCC(=O)O[C@@H]1C(CO[C@H]2OC(CO)[C@H](O)C(O)C2O)O[C@H](O[C@H]2OC(COC(C)=O)[C@@H](O)C(O)C2O)C(OC(=O)CCC(C)CC)C1OC(=O)C(C)CC` (single isomer, unassigned) [Compound 5, 6-O-β-L-mannosyl-3-O-(2-methylbutyryl)-4-O-(8-methyldecanoyl)-2-O-(4-methylhexanoyl)-6′-O-acetyltrehalose], the Zone of inhibition came out at 10 mm in the assay with Peronophythora litchii; 16 mm in the assay on Curvularia lunata; 18 mm in the assay with Helminthosporium maydis; 8 mm in assay [1]; 14 mm in the assay with Penicillium italicum; 16 mm in the assay with Ustilaginoidea virens. Further, the Zone of inhibition in assay [2] came to 8 mm; in assay [3], 15 mm; in the assay on Botrytis cinerea, 9 mm; in the assay with Rhizoctonia solani, 12 mm; in the assay on Fusarium oxysporium, 8 mm; in the assay on Alternaria solani, 10 mm.

`CCC(C)CCCCCCC(=O)O[C@@H]1C(CO[C@H]2OC(CO)[C@H](O)[C@H](O)C2O)O[C@H](O[C@H]2OC(CO)[C@@H](O)[C@H](O)C2O)C(OC(=O)CCC(C)CC)[C@H]1OC(=O)C(C)CC` (stereo partly drawn) [Compound 1, 6-O-β-L-mannosyl-3-O-(2-methylbutyryl)-4-O-(8-methyldecanoyl)-2-O-(4-methylhexanoyl)trehalose]: the Zone of inhibition in the assay on Peronophythora litchii was found to be 13 mm; in the assay on Curvularia lunata, 12 mm; in the assay with Helminthosporium maydis, 22 mm; in assay [1], 12 mm; with Penicillium italicum, 20 mm; in the assay with Ustilaginoidea virens, 22 mm. Also, the Zone of inhibition in assay [2] was found to be 16 mm; in assay [3] it was 17 mm; in the assay with Botrytis cinerea, 15 mm; with Rhizoctonia solani, 18 mm; in the assay with Fusarium oxysporium it was 10 mm; in the assay with Alternaria solani it was 12 mm.

With `CN(C)C(=S)SSC(=S)N(C)C` [Thiram], the Infection index in assay [4] (treating solution 200 mg/L) came to 29.0 ± 1.9%; in assay [4] (treating solution 400 mg/L), 31.4 ± 0.9%; in assay [4] (treating solution 600 mg/L), 29.2 ± 1.0%.
